SMILES strings stand for the structures.

The target of this assay is PIK3CD (Human) (UniProt O00329). Kind of assay: Assessment of PIK3CD Kinase Activity.
Sequence of PIK3CD (Human) (O00329 whole entry, looked up): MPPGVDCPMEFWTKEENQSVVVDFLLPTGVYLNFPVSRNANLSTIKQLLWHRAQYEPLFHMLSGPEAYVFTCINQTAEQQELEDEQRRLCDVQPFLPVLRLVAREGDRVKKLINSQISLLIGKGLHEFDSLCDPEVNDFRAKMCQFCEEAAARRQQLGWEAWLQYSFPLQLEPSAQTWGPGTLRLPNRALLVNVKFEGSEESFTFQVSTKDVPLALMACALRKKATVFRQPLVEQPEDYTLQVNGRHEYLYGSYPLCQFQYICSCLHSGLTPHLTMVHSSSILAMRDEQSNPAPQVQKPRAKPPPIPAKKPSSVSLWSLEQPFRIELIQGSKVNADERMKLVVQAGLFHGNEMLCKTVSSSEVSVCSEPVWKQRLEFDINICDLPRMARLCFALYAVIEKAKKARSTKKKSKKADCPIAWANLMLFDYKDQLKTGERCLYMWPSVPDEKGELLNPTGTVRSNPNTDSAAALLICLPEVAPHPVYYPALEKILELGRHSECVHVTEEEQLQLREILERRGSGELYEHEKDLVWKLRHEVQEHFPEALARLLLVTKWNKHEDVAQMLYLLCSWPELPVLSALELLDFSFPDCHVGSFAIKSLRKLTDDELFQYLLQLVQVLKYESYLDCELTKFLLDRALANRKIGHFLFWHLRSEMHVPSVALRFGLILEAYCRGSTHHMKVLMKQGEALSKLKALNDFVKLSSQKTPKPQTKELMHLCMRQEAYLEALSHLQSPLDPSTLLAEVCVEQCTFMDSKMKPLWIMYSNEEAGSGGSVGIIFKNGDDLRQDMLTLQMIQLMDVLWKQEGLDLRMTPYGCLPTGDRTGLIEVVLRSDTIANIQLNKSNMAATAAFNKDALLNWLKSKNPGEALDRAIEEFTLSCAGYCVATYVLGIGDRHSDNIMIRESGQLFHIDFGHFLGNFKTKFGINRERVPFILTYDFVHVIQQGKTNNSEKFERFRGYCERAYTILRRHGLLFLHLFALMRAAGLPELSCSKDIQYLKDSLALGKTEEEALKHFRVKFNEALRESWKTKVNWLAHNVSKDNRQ
The term IC50 denotes the concentration needed to halve the response being measured. The compound `Cc1ccc(C)c(-c2nc3c(C)cccc3cc2Cn2cnc3c(N)ncnc32)c1` came in with an IC50 of 0.05 to 0.25 µM.

In the case of `Cc1cccc2cc(CNC(=O)c3nccnc3N)c(N3C[C@H](C)NC[C@H]3C)nc12`, the IC50 fell in the range of 0.25 to 0.5 µM.

Compound `Cc1cccc2cc(Cn3cnc4c(N)ncnc43)c(N3CCC4CCCCC4C3)nc12` (configuration not stated) returned an IC50 of 0.5 to 1.5 µM.

Turning to `Cc1ccc(S(=O)(=O)C(C)CCN(C)c2nc3c(C)cccc3cc2CNC(=O)c2nccnc2N)cc1` (configuration not stated), the IC50 lay within 0.5 to 1.5 µM.

Compound `COc1ccc(OCc2cc3cccc(C)c3nc2-c2ccccc2Cl)c(Cl)c1` returned an IC50 of 0.5 to 1.5 µM.

`CNCCN(C)c1nc2c(C)cccc2cc1COc1cccc(OC)c1` yielded an IC50 of 0.5 to 1.5 µM.

In the case of `CN(C)Cc1ccccc1-c1cc2c(Cl)cccc2nc1CNC(=O)c1nccnc1N`, the IC50 is below 0.05 µM.

`COc1ccc(NCc2cc3cccc(C)c3nc2-c2ccccc2Cl)cc1OC` came in with a concentration for half-maximal inhibition (IC50) of 0.5 to 1.5 µM.

`CNCCN(C)c1nc2c(C)cccc2cc1CNc1cccc(OC)c1`: the IC50 lay within 0.5 to 1.5 µM.

`Cc1cccc2cc(CNC(=O)c3nccnc3N)c(N3CCC(N(C)C(=O)OC(C)(C)C)CC3)nc12` yielded an IC50 of 0.5 to 1.5 µM.

In turn, `CCOc1ccccc1-c1nc2c(C)cccc2cc1Cn1cnc2c(N)ncnc21` gave a half-inhibitory concentration (IC50) of 0.25 to 0.5 µM.

`CNCCCC(C)c1nc2c(C)cccc2cc1CNC(=O)c1nccnc1N` (configuration not stated) registered an IC50 of 0.05 to 0.25 µM.

In turn, `COc1cc(NCc2cc3cccc(C)c3nc2-c2ccccc2Cl)cc(OC)c1` displayed an IC50 of 0.5 to 1.5 µM.

With `COc1cccc(NCc2cc3cccc(C)c3nc2-c2ccccc2Cl)c1`, the half-inhibitory concentration (IC50) is 0.5 to 1.5 µM.

Regarding `COc1cnc(C(=O)NCc2nc3ccccc3cc2-c2ccccc2C)c(N)n1`, the IC50 lay within 0.5 to 1.5 µM.

`COc1cc(OC)cc(OCc2cc3cccc(C)c3nc2-c2ccccc2Cl)c1` displayed an IC50 of 0.5 to 1.5 µM.

Take `Cc1cccc2cc(CNC(=O)c3nccnc3N)c(N(C)CCN(C)C(=O)[C@@H]3CCCN3)nc12`: the IC50 lay in the range of 0.05 to 0.25 µM.

The values are drawn from the Kinase Knowledgebase extract (Sharma et al. 2016).
